Measurements from patent US5403717A, “Diagnosis of premalignant or malignant conditions of human secretory epithelia” (Pacific Northwest Research, priority 1992, dated 1995).

Legend:
[1] = system: β1→3N-acetylglucosaminyltransferase; experiment: β1→3N-acetylglucosaminyltransferase assay with Triton X-100 solubilized enzyme from SW403 cells; assay type: biochemical, human; conditions: for Substrate specificity of β1-3N-acetylglucosaminyltransferase: transfer of GlcNAc to acceptor: 40 ug of each acceptor, ND = none detected
Experimental: (§1) The labelled product was extracted into the lower phase of a Folch extraction (J. Biol. Chem., 191, 819-831), dried by an N2 stream, and dissolved in 20 μl of CHCl3 :CH3 OH (2:1). An aliquot, 10 μl was spotted on a HPTLC plate (Merck) and developed in a solvent composed of CHCl3 :CH3 OH:H2 O (60:35:8). The labelled glycolipids were located by autoradiography, scraped, and quantitated in a liquid scintillation counter.

[2] = target: T1, β1→3N-acetylglucosaminyltransferase (Homo sapiens, UniProt Q9BYG0); experiment: as above; assay type: biochemical; conditions: for fold less activity on substitution of Mn++: 10 mM final concentration, compared to Mn++; for β1-3N-acetylglucosaminyltransferase activity, Mn++ replaced by the named agent: plus agent at 10 mM final; for Effect of detergents on β1-3N-acetylglucosaminyltransferase activity: detergent added at 0.3% final concentration, 0.05% Triton X-100 present from enzyme, acceptor lactosylceramide; for effect of removal from the reaction mixture on activity (in words): component removed from complete system; for β1-3N-acetylglucosaminyltransferase activity, named component omitted from complete system: component removed
T1 construct: solubilized from a 27,000 x g membrane pellet of SW403 cells by 0.2% Triton X-100; endogenous in cells; host or cells: SW403 cells (human colonic adenocarcinoma), 0.2% Triton X-100 soluble membrane fraction
T1 sequence (Q9BYG0 1-378): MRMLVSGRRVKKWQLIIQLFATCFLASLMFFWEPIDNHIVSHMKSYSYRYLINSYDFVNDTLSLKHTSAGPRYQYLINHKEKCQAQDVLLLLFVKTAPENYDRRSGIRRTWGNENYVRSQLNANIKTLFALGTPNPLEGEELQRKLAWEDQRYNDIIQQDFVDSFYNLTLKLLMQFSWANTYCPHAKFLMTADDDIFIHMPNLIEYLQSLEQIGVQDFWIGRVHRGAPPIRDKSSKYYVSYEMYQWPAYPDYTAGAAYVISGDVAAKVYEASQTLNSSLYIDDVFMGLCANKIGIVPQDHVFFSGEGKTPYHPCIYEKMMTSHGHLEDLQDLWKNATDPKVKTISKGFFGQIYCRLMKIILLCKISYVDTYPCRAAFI
Experimental: as §1

[3] = target: T2, β1-3galactosyltransferase (Homo sapiens, UniProt Q9Y2C3); experiment: Effect of α-lactalbumin on β1-3galactosyltransferase of a 0.2% Triton X-100 soluble fraction from SW403 cells; assay type: biochemical; conditions: 30 μg acceptor, 0.2 mg solubilized protein
T2 construct: catalyzed by a 0.2% Triton X-100 soluble fraction from SW403 cells; endogenous in cells; host or cells: SW403 cells (human colonic adenocarcinoma), 0.2% Triton X-100 soluble fraction
T2 sequence (Q9Y2C3 1-310): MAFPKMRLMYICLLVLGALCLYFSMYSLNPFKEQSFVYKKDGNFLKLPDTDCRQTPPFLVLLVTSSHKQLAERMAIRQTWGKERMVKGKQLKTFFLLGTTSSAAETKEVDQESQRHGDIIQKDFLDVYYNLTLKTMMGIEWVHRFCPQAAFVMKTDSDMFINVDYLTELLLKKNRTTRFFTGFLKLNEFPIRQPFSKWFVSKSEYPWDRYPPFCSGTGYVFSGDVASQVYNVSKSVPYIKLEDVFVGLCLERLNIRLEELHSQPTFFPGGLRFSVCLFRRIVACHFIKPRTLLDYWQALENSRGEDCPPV
Experimental: The effect of increasing α-lactalbumin on the transfer of galactose to glucosylceramide, +--+, Lc3 forming nLc4, o--o, and Lc3 forming Lc4, x--x, catalyzed by a 0.2% Triton X-100 soluble fraction from SW403 cells is shown. The assays were conducted in the presence of 30 μg of the indicated acceptor and 0.2 mg of solubilized protein.
Synthesis of type 1 and 2 chain structures Lc4 and nLc4 are catalyzed by β1-3 and β1-4galactosyltransferases, respectively, competing for Lc3. A β1-4-galactosyltransferase responsible for transfer of Gal to Lc3 in human plasma was previously reported to be lactose synthetase A protein which was also involved in the synthesis of lactosylceramide (J. Biochem., 92, 1123-1127 (1982)). The effect of increasing α-lactalbumin on the β1-4galactosyltransferase activity in SW403 cells is seen with glucosylceramide and Lc3 as acceptors.
The reaction mixtures contained 2.5 μmol HEPES buffer, pH 7.0, 20 μg Lc3, 10 μg deoxycholate, 1 μmol MnCI2, 0.5 μmol CDPcholine, 0.5 μmol galactonolactone, 15 nmol UDP[^14 C]galactose (30,000 cpm/nmol), and 0.1 mg protein in a total volume of 0.1 ml. […] The incorporation of [^14 C]galactose into glycolipid was determined as described above.

Lactotetraosylceramide [Lc4]
Substrate specificity of β1-3N-acetylglucosaminyltransferase: transfer of GlcNAc to acceptor [1]: 27 pmol/hr/mg protein
transfer of GlcNAc to acceptor (in words) ([1]; SW403 cell enzyme, lacto-series glycolipid acceptors): detectable but is much lower

[Ca+2] [Ca^++]
fold less activity on substitution of Mn++ [2]: 13 fold
β1-3N-acetylglucosaminyltransferase activity, Mn++ replaced by the named agent ([2]; complete system gives 76.0): 6.0 pmol/hr/mg protein

CC(=O)N[C@H]1C(O)O[C@H](CO)[C@@H](O)[C@@H]1O (some centres unmarked) [GlcNAc]
β1-3N-acetylglucosaminyltransferase activity, GlcNAc added to complete system ([2]; GlcNAc 10 mM final, complete system gives 76.0): 80.3 pmol/hr/mg protein
effect on transfer of GlcNAc to lactosylceramide (in words) ([2]; agent at 10 mM final concentration (EDTA in place of Mn++; GlcNAc added)): only slight stimulation of the activity

C[C@H](CCC(=O)O)[C@H]1CC[C@H]2[C@@H]3CC[C@@H]4C[C@H](O)CC[C@]4(C)[C@H]3C[C@H](O)[C@]12C [Deoxycholate]
Effect of detergents on β1-3N-acetylglucosaminyltransferase activity [2]: 67.5 pmol/hr/mg protein

lactosylceramide
effect of removal from the reaction mixture on activity (in words) [2]: greatly diminished the activity
β1-3N-acetylglucosaminyltransferase activity, named component omitted from complete system ([2]; complete system gives 76.0): 8.3 pmol/hr/mg protein
Substrate specificity of β1-3N-acetylglucosaminyltransferase: transfer of GlcNAc to acceptor [1]: 76 pmol/hr/mg protein

Triton X-100
Effect of detergents on β1-3N-acetylglucosaminyltransferase activity [2]: 67.9 pmol/hr/mg protein

C[N+](C)(C)CCOP(=O)(O)OP(=O)([O-])OC[C@H]1O[C@@H](n2ccc(N)nc2=O)[C@H](O)[C@@H]1O [CDPcholine]
effect of removal from the reaction mixture on activity (in words) [2]: significant loss of activity
β1-3N-acetylglucosaminyltransferase activity, named component omitted from complete system ([2]; complete system gives 76.0): 65.3 pmol/hr/mg protein

C[C@H](CCC(=O)NCCC[N+](C)(C)CC(O)CS(=O)(=O)[O-])[C@H]1CC[C@H]2[C@@H]3[C@H](O)C[C@@H]4C[C@H](O)CC[C@]4(C)[C@H]3C[C@H](O)[C@]12C (some centres unmarked) [CHAPSO]
Effect of detergents on β1-3N-acetylglucosaminyltransferase activity [2]: 54.5 pmol/hr/mg protein

[Mg+2] [Mg^++]
fold less activity on substitution of Mn++ [2]: 21 fold
β1-3N-acetylglucosaminyltransferase activity, Mn++ replaced by the named agent ([2]; complete system gives 76.0): 3.6 pmol/hr/mg protein

B1: α-lactalbumin: protein modifier of lactose synthetase A protein (β1-4galactosyltransferase) (protein, UniProt P00709 20-142, looked up)
Alpha-lactalbumin: KQFTKCELSQLLKDIDGYGGIALPELICTMFHTSGYDTQAIVENNESTEYGLFQISNKLWCKSSQVPQSRNICDISCDKFLDDDITDDIMCAKKILDIKGIDYWLAHKALCTEKLEQWLCEKL
effect of α-lactalbumin on β1-3galactosyltransferase with Lc3 as acceptor (forming Lc4) [3]: Slight activation
